# According to the supplement of paper PMC10307832:
# What was measured:
# Assay in all cases: relative viability (nuclei count vs DMSO), 5 days (fraction); higher = more cells survive
# [1] = test system: NCI-H520
# Procedure, shortened: (§1)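 Relative viability is defined as nuclei in treated wells over nuclei in vehicle wells. Duplicate plates were run and medians reported. Lung cancer cell lines in 1536-well plates were dosed by pin tool one day after seeding, with one drug or with a fixed anchor-drug dose plus five library-drug doses (not always all listed) in √10 steps, and nuclei were counted after 5 days.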
# [2] = test system: NCI-H358
# Procedure, shortened: as §1
# [3] = test system: LCLC-103H
# Procedure, shortened: as §1
# [4] = test system: LU99A
# Procedure, shortened: as §1
# [5] = test system: HCC-827
# Procedure, shortened: as §1
# [6] = test system: NCI-H1793
# Procedure, shortened: as §1
# [7] = test system: SK-LU-1
# Procedure, shortened: as §1
# [8] = test system: CAL-12T
# Procedure, shortened: as §1
# [9] = test system: NCI-H2347
# Procedure, shortened: as §1
# [10] = test system: HCC-44
# Procedure, shortened: as §1
# [11] = test system: RERF-LC-KJ
# Procedure, shortened: as §1
smiles,measurement,setting,value
Cc1csc(=NC2CCCCC2)n1/N=C/c1ccc(O)c(O)c1O [MIM1] + CC(=O)Nc1cccc(-n2c(=O)n(C3CC3)c(=O)c3c(Nc4ccc(I)cc4F)n(C)c(=O)c(C)c32)c1 [Trametinib] (partner 0.02 µM),relative viability,[1]; first compound 0.2 µM,0.625
same,relative viability,[1]; first compound 0.6325 µM,0.707
same,relative viability,[1]; first compound 2 µM,0.652
same,relative viability,[1]; first compound 6.325 µM,0.529
same,relative viability,[1]; first compound 20 µM,0.289
same,relative viability,[2]; first compound 0.2 µM,0.149
same,relative viability,[2]; first compound 0.6325 µM,0.15
same,relative viability,[2]; first compound 2 µM,0.119
same,relative viability,[2]; first compound 6.325 µM,0.116
same,relative viability,[2]; first compound 20 µM,0.133
same,relative viability,[3]; first compound 0.2 µM,0.662
same,relative viability,[3]; first compound 0.6325 µM,0.687
same,relative viability,[3]; first compound 2 µM,0.694
same,relative viability,[3]; first compound 6.325 µM,0.669
same,relative viability,[3]; first compound 20 µM,0.394
same,relative viability,[4]; first compound 0.2 µM,0.571
same,relative viability,[4]; first compound 0.6325 µM,0.611
same,relative viability,[4]; first compound 2 µM,0.604
same,relative viability,[4]; first compound 6.325 µM,0.469
same,relative viability,[4]; first compound 20 µM,0.164
same,relative viability,[5]; first compound 0.2 µM,0.501
same,relative viability,[5]; first compound 0.6325 µM,0.506
same,relative viability,[5]; first compound 2 µM,0.522
same,relative viability,[5]; first compound 6.325 µM,0.384
same,relative viability,[5]; first compound 20 µM,0.443
same,relative viability,[6]; first compound 0.2 µM,0.397
same,relative viability,[6]; first compound 2 µM,0.409
same,relative viability,[6]; first compound 6.325 µM,0.411
same,relative viability,[6]; first compound 20 µM,0.408
same,relative viability,[7]; first compound 0.2 µM,0.471
same,relative viability,[7]; first compound 0.6325 µM,0.528
same,relative viability,[7]; first compound 2 µM,0.516
same,relative viability,[7]; first compound 6.325 µM,0.459
same,relative viability,[7]; first compound 20 µM,0.202
same,relative viability,[8]; first compound 0.2 µM,0.406
same,relative viability,[8]; first compound 0.6325 µM,0.378
same,relative viability,[8]; first compound 2 µM,0.341
same,relative viability,[8]; first compound 6.325 µM,0.316
same,relative viability,[8]; first compound 20 µM,0.249
same,relative viability,[9]; first compound 0.2 µM,0.309
same,relative viability,[9]; first compound 0.6325 µM,0.358
same,relative viability,[9]; first compound 2 µM,0.283
same,relative viability,[9]; first compound 6.325 µM,0.315
same,relative viability,[9]; first compound 20 µM,0.27
same,relative viability,[10]; first compound 0.2 µM,1.05
same,relative viability,[10]; first compound 0.6325 µM,1.07
same,relative viability,[10]; first compound 2 µM,1.06
same,relative viability,[10]; first compound 6.325 µM,1.13
same,relative viability,[10]; first compound 20 µM,0.304
same,relative viability,[11]; first compound 0.2 µM,0.832
same,relative viability,[11]; first compound 0.6325 µM,0.801
same,relative viability,[11]; first compound 2 µM,0.666
